One experiment deals with T1, CCL8_HUMAN (Homo sapiens, UniProt P80075).
T1 sequence (P80075 24-99): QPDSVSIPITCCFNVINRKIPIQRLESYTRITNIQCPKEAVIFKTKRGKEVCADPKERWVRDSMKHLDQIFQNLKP
Briefly: Neutralisation of chemokine induced THP-1 cell migration. The experiment is classed as cell-based. The procedure:
Table 1. Tick CKBPs described in PCT/GB2017/050563 and [17]. Tick peptide sequences isolated in yeast surface display fluorescent-activated cell sorting (FACS) screens using a labelled chemokine. Identity with Evasin-1, 4 or 3 was calculated using BLAST. Abbreviations: IXORI—Ixodes ricinus, RHISA—Rhipicephalus sanguineus, AMBMA—Amblyomma maculatum, AMBPA—Amblyomma parvum, AMBTR—Amblyomma triste, AMBAM—Amblyomma americanum, AMBCA—Amblyomma cajennense, RHIPU—Rhipicephalus pulchellus. Table 2A-C. Binding characteristics of tick CKBPs previously disclosed (PCT/GB2017/050563 and [17]). All members of the human chemokine family[164] are listed in column 1. Binding to human chemokines was determined for 14 tick CKBPs using biolayer interferometry (BLI) with calculated Kd shown as Molar (Moles/Litre). Binding data for 17 other novel tick CKBPs was assayed using yeast surface display[17,166],with positive binding results shown as “YES”. For biolayer interferometry, His-tagged purified tick CKBP was bound to a Ni-NINTA sensor on an OctetRed® 384 system, and then binding to each chemokine listed (with the exception of CCL25, CCL26, CXCL16, CXCL17, CXCL4L1, XCL2) was assayed in a cross-binding screen at a chemokine concentration of 300 nM as described. For those chemokines showing binding to a tick CKBP in the cross-binding screen, binding assays were repeated using different doses of chemokine. Association, equilibrium and dissociation data were analysed using Octet software to create corresponding fitted curves, and used to calculate Kd. For yeast surface display, (YSD) background fluorescence was controlled for by using either an empty vector or by omitting the chemokine (i.e. using streptavidin-Alexa647 alone). An arbitrary threshold of >3 fold over background mean fluorescence intensity was chosen to describe confirmed re-tests. Where binding was detected data are indicated as “YES”. […] For yeast surface display data, empty cells represent chemokines that were not tested. Binding data published in relation to previously described tick CKBPs (Evasins-1, 4 and 3) is also shown for comparison in each of FIGS. 2A-C, with the relevant data obtained from publications: [20-22,32]. Table 3: Neutralisation of human chemokines by tick CKBPs previously disclosed (PCT/GB2017/050563 and [17]). Neutralising activity was determined using a quantitative THP1 cell migration assay in a 96-well Boyden chamber with chemokine in the bottom chamber as described. Cells migrating through to the bottom chamber at 4 hours were counted using flow cytometry in a 96 well plate format. IC50 for neutralisation was determined at the chemokine EC80 dose as determined using a range of tick CKBP concentrations. Data was analysed using GraphPad Prism to determine IC50, which is shown as Molar (Moles/Litre). Empty cells represent experiments not done. Table 4—Other previously described tick CKBPs. Tick CKBPs that were also described in PCT/GB2017/050563 and Singh et al. are indicated in “Notes”. Table 5.—Novel tick CKBPs of the invention. Table 6. […] The peptide sequence prefix indicates the identity, and suffix indicate the tick species as follows: AMBCA, Amblyomma cajennense and IXORI, Ixodes ricinus. […] Individual yeast clones recovered from the library were re-tested using a FACS (fluorescence activated cell sorting), experiment. The binding of the peptide to the chemokine was assayed by measuring the percent (%), of yeast cells expressing the given peptide that exceeded a background threshold set by measuring the fluorescence of the yeast library pool treated with streptavidin-[…] alone. When more than one independent yeast clone was isolated for a given peptide-chemokine combination, the mean percent shift was calculated and reported in column 3.

Another experiment concerns the target T2, CCL8 homodimer (Homo sapiens, UniProt P80075).
T2 construct: purchased Peprotech (UK)
T2 sequence (P80075 24-99): T1 sequence (P80075 24-99)
In words: Native mass spectrometry of CCL8 with peptide. To be noted: 1:1 CCL8 monomer:BK1.1. The procedure:
Mid panel: In-solution dissociation of CCL8 dimer and further binding of CCL8 to one and two BK-1. Confirmation of CCL8/BK-1 complex by HCD gas-phase dissociation of isolated precursor ions: Bottom panel, left: 2217 m/z corresponding to CCL8/BK-1 (1:1) and Bottom panel, […]: 2555 m/z corresponding to CCL8/BK-1 (1:2). Buffers contained up to 0.5% DMSO. All analyses were performed in triplicate.
Samples were analysed using a modified Q-Exactive mass spectrometer (Thermo Fisher Scientific) for high-mass range measurements (Gault, J. et al., Nature methods [2016]). CCL8 was buffered exchanged into 200 mM ammonium acetate solution (pH=6.5). […] In all cases no more than 0.5% DMSO was present in the final mixture, and a control sample of CCL8 homodimer containing 0.5% DMSO was also analysed. Instrumental parameters were set to: capillary voltage of 1.2 KV, source temperature of 50° C. and 60 V of source induced dissociation (SID). Gas phase dissociation was carried out by applying 35 and 55 V of higher-energy collisional dissociation (HCD) to the most intense charge state after isolation (25 m/z window). Spectra was acquired using a mass resolution of 60,000 for both precursor and dissociated product ions. All measurements were done in triplicates.

No end group written: not given here.

As to EDEDYEDFFKPVTAYF-NH2 [BK1.1], on CCL8_HUMAN, the IC50 turned out to be 0.51 µM. Moreover, the “Effect on CCL8 homodimerization” value at CCL8 homodimer was “disrupt CCL8 homodimerization”.

The record behind these values is patent US20200247855A1, “THERAPY AND DIAGNOSTICS” (OXFORD UNIVERSITY INNOVATION LIMITED, priority 2017, published 2020).
